{"source": "patent US8916579B2", "about": "“5-fluoropyrimidinone derivatives” (Dow AgroSciences, LLC., priority 2009, dated 2014)", "key": {"[1]": {"system": "Mycosphaerella graminicola; anamorph: Septoria tritici; Bayer code SEPTTR", "assay": "Fungicidal activity: leaf blotch of wheat, greenhouse wheat plants (variety Yuma), percent disease control", "assay_type": "in vivo", "details": "Zymoseptoria tritici", "procedure": "Evaluation of Fungicidal Activity: Leaf Blotch of Wheat (Mycosphaerella graminicola; anamorph: Septoria tritici; Bayer code SEPTTR)\nWheat plants (variety Yuma) were grown from seed in a greenhouse in 50% mineral soil/50% soil-less Metro mix until the first leaf was fully emerged, with 7-10 seedlings per pot. These plants were inoculated with an aqueous spore suspension of Septoria tritici either prior to or after fungicide treatments. After inoculation the plants were kept in 100% relative humidity (one day in a dark dew chamber followed by two to three days in a lighted dew chamber) to permit spores to germinate and infect the leaf. The plants were then transferred to a greenhouse for disease to develop.\nThe effectiveness of the test compounds in controlling disease was determined by assessing the severity of disease on treated plants, then converting the severity to percent control based on the level of disease on untreated, inoculated plants. • In each case of Table II the rating scale is as follows: […]"}, "[2]": {"details": "24 h, One-Day Protectant (1DP), 100 ppm, wheat plants, read-out: SEPTTR 100 PPM 1DP (% Disease Control rating)"}, "[3]": {"details": "72 h, Three-Day Curative (3DC), 100 ppm, wheat plants, read-out: SEPTTR 100 PPM 3DC (% Disease Control rating)"}, "[4]": {"details": "24 h, read-out: SEPTTR 100 PPM 1DP (% Disease Control rating)"}, "[5]": {"details": "72 h, read-out: SEPTTR 100 PPM 3DC (% Disease Control rating)"}}, "note": "Read-outs that look alike come from different tables or passages of the source."}
{"compound": "Cc1ccc(Cn2cc(F)c(/N=C/N(C)C)nc2=O)cc1", "note": "[Compound 7]", "values": [{"measurement": "pest or weed control at 100 ppm", "setting": "[1]; [2]", "result": "0 to 25", "unit": "%"}, {"measurement": "pest or weed control at 100 ppm", "setting": "[1]; [3]", "result": "0 to 25", "unit": "%"}, {"measurement": "melting point", "result": "178 to 179", "unit": "°C"}]}
{"compound": "Nc1nc(=O)n(COc2ccc(Cl)cc2)cc1F", "note": "[Compound 19]", "values": [{"measurement": "pest or weed control at 100 ppm", "setting": "[1]; [2]", "result": "26 to 50", "unit": "%"}, {"measurement": "pest or weed control at 100 ppm", "setting": "[1]; [3]", "result": "0 to 25", "unit": "%"}, {"measurement": "melting point", "result": "240 to 245", "unit": "°C"}]}
{"compound": "CCOC(=O)OC(C)n1cc(F)c(N)nc1=O", "note": "(stereo not drawn) [Compound 23]", "values": [{"measurement": "pest or weed control at 100 ppm", "setting": "[1]; [2]", "result": "76 to 100", "unit": "%"}, {"measurement": "pest or weed control at 100 ppm", "setting": "[1]; [3]", "result": "76 to 100", "unit": "%"}, {"measurement": "melting point", "result": "162 to 166", "unit": "°C"}]}
{"compound": "CSCn1cc(F)c(NC(=O)Nc2ccccc2Cl)nc1=O", "note": "[Compound 86]", "values": [{"measurement": "pest or weed control at 100 ppm", "setting": "[1]; [2]", "result": "26 to 50", "unit": "%"}, {"measurement": "pest or weed control at 100 ppm", "setting": "[1]; [3]", "result": "26 to 50", "unit": "%"}, {"measurement": "melting point", "result": "181.8 to 183.5", "unit": "°C"}]}
{"compound": "C=Cn1cc(F)c(NCc2ccccc2F)nc1=O", "note": "[Compound 67]", "values": [{"measurement": "pest or weed control at 100 ppm", "setting": "[1]; [2]", "result": "0 to 25", "unit": "%"}, {"measurement": "pest or weed control at 100 ppm", "setting": "[1]; [3]", "result": "51 to 75", "unit": "%"}, {"measurement": "melting point", "result": "168.6 to 169.1", "unit": "°C"}]}
{"compound": "CN(C)CNc1nc(=O)n(CN(C)C)cc1F", "note": "[Compound 3]", "values": [{"measurement": "pest or weed control at 100 ppm", "setting": "[1]; [2]", "result": "76 to 100", "unit": "%"}, {"measurement": "pest or weed control at 100 ppm", "setting": "[1]; [3]", "result": "76 to 100", "unit": "%"}, {"measurement": "melting point", "result": "157 to 187 °C (dec.)"}]}
{"compound": "O=C(Nc1ccccc1Cl)Nc1nc(=O)n(CC2CC2)cc1F", "note": "[Compound 85, 1-(2-chlorophenyl)-3-(1-(cyclopropylmethyl)-5-fluoro-2-oxo-1,2-dihydropyrimidin-4-yl)urea]", "values": [{"measurement": "pest or weed control at 100 ppm", "setting": "[1]; [2]", "result": "0 to 25", "unit": "%"}, {"measurement": "pest or weed control at 100 ppm", "setting": "[1]; [3]", "result": "0 to 25", "unit": "%"}, {"measurement": "melting point", "result": "197 to 199", "unit": "°C"}]}
{"compound": "Nc1nc(=O)n(Cc2ccc(F)cc2F)cc1F", "note": "[Compound 33]", "values": [{"measurement": "pest or weed control at 100 ppm", "setting": "[1]; [2]", "result": "0 to 25", "unit": "%"}, {"measurement": "pest or weed control at 100 ppm", "setting": "[1]; [3]", "result": "51 to 75", "unit": "%"}, {"measurement": "melting point", "result": "250 to 254", "unit": "°C"}]}
{"compound": "CCCCCCCCOCn1cc(F)c(N)nc1=O", "note": "[Compound 18]", "values": [{"measurement": "pest or weed control at 100 ppm", "setting": "[1]; [2]", "result": "26 to 50", "unit": "%"}, {"measurement": "pest or weed control at 100 ppm", "setting": "[1]; [3]", "result": "51 to 75", "unit": "%"}, {"measurement": "melting point", "result": "166 to 170", "unit": "°C"}]}
{"compound": "Cn1cc(F)c(N)nc1=O", "note": "[Compound 28, 4-amino-5-fluoro-1-methylpyrimidin-2(1H)-one]", "values": [{"measurement": "pest or weed control at 100 ppm", "setting": "[1]; [2]", "result": "51 to 75", "unit": "%"}, {"measurement": "pest or weed control at 100 ppm", "setting": "[1]; [3]", "result": "76 to 100", "unit": "%"}, {"measurement": "melting point", "result": "195 °C (dec.)"}]}
{"compound": "COc1ccc(CCn2cc(F)c(N)nc2=O)cc1", "note": "[Compound 30]", "values": [{"measurement": "pest or weed control at 100 ppm", "setting": "[1]; [2]", "result": "0 to 25", "unit": "%"}, {"measurement": "pest or weed control at 100 ppm", "setting": "[1]; [3]", "result": "76 to 100", "unit": "%"}, {"measurement": "melting point", "result": "168 to 189", "unit": "°C"}]}
{"compound": "Nc1nc(=O)n(CCCCI)cc1F", "note": "[Compound 26, 4-amino-5-fluoro-1-(4-iodobutyl)-1H-pyrimidin-2-one]", "values": [{"measurement": "pest or weed control at 100 ppm", "setting": "[1]; [4]", "result": "0 to 25", "unit": "%"}, {"measurement": "pest or weed control at 100 ppm", "setting": "[1]; [5]", "result": "26 to 50", "unit": "%"}, {"measurement": "melting point", "result": "181 to 184", "unit": "°C"}]}
{"compound": "CSCn1cc(F)c(NC(=O)Nc2ccc(C)cc2)nc1=O", "note": "[Compound 93]", "values": [{"measurement": "pest or weed control at 100 ppm", "setting": "[1]; [2]", "result": "0 to 25", "unit": "%"}, {"measurement": "pest or weed control at 100 ppm", "setting": "[1]; [3]", "result": "51 to 75", "unit": "%"}, {"measurement": "melting point", "result": "188.8 to 190.2", "unit": "°C"}]}
{"compound": "CCOC(=O)Cn1cc(F)c(/N=C/N(C)C)nc1=O", "note": "[Compound 36]", "values": [{"measurement": "pest or weed control at 100 ppm", "setting": "[1]; [2]", "result": "51 to 75", "unit": "%"}, {"measurement": "pest or weed control at 100 ppm", "setting": "[1]; [3]", "result": "26 to 50", "unit": "%"}, {"measurement": "melting point", "result": "196 to 199", "unit": "°C"}]}
{"compound": "Nc1nc(=O)n(COCc2ccccc2)cc1F", "note": "[Compound 14, 4-amino-1-(benzyloxymethyl)-5-fluoropyrimidin-2(1H)-one]", "values": [{"measurement": "pest or weed control at 100 ppm", "setting": "[1]; [2]", "result": "0 to 25", "unit": "%"}, {"measurement": "pest or weed control at 100 ppm", "setting": "[1]; [3]", "result": "0 to 25", "unit": "%"}, {"measurement": "melting point", "result": "213 to 217", "unit": "°C"}]}
{"compound": "O=C(Oc1ccccc1)N(C(=O)Oc1ccccc1)c1nc(=O)n(CC2CC2)cc1F", "note": "[Compound 82]", "values": [{"measurement": "pest or weed control at 100 ppm", "setting": "[1]; [4]", "result": "26 to 50", "unit": "%"}, {"measurement": "pest or weed control at 100 ppm", "setting": "[1]; [5]", "result": "26 to 50", "unit": "%"}, {"measurement": "melting point", "result": "159 to 161", "unit": "°C"}]}
{"compound": "CC(C)Cn1cc(F)c(NC(=O)c2cccs2)nc1=O", "note": "[Compound 99]", "values": [{"measurement": "pest or weed control at 100 ppm", "setting": "[1]; [2]", "result": "0 to 25", "unit": "%"}, {"measurement": "pest or weed control at 100 ppm", "setting": "[1]; [3]", "result": "76 to 100", "unit": "%"}, {"measurement": "melting point", "result": "125.6 to 127.5", "unit": "°C"}]}
{"compound": "C=Cn1cc(F)c(/N=C/N(C)C)nc1=O", "note": "[Compound 58]", "values": [{"measurement": "pest or weed control at 100 ppm", "setting": "[1]; [2]", "result": "76 to 100", "unit": "%"}, {"measurement": "pest or weed control at 100 ppm", "setting": "[1]; [3]", "result": "76 to 100", "unit": "%"}, {"measurement": "melting point", "result": "179.6 to 181.3", "unit": "°C"}]}
{"compound": "Nc1nc(=O)n(CCCCn2cncn2)cc1F", "note": "[Compound 27, 4-amino-5-fluoro-1-(4-[1,2,4]triazol-1-yl-butyl)-1H-pyrimidin-2-one]", "values": [{"measurement": "pest or weed control at 100 ppm", "setting": "[1]; [2]", "result": "0 to 25", "unit": "%"}, {"measurement": "pest or weed control at 100 ppm", "setting": "[1]; [3]", "result": "0 to 25", "unit": "%"}, {"measurement": "melting point", "result": "197 to 200", "unit": "°C"}]}
{"compound": "CCCCCNC(=O)Nc1nc(=O)n(CSC)cc1F", "note": "[Compound 92]", "values": [{"measurement": "pest or weed control at 100 ppm", "setting": "[1]; [2]", "result": "76 to 100", "unit": "%"}, {"measurement": "pest or weed control at 100 ppm", "setting": "[1]; [3]", "result": "76 to 100", "unit": "%"}, {"measurement": "melting point", "result": "100.2 to 101.8", "unit": "°C"}]}
{"compound": "O=C(Nc1nc(=O)n(CC2CCCO2)cc1F)c1ccccc1F", "note": "(stereo not drawn) [Compound 96]", "values": [{"measurement": "pest or weed control at 100 ppm", "setting": "[1]; [2]", "result": "0 to 25", "unit": "%"}, {"measurement": "pest or weed control at 100 ppm", "setting": "[1]; [3]", "result": "26 to 50", "unit": "%"}, {"measurement": "melting point", "result": "119.8 to 121.9", "unit": "°C"}]}
{"compound": "Nc1nc(=O)n(-c2ccc3c(c2)OCO3)cc1F", "note": "[Compound 47]", "values": [{"measurement": "pest or weed control at 100 ppm", "setting": "[1]; [2]", "result": "26 to 50", "unit": "%"}, {"measurement": "pest or weed control at 100 ppm", "setting": "[1]; [3]", "result": "0 to 25", "unit": "%"}, {"measurement": "melting point", "result": "275 to 279", "unit": "°C"}]}
{"compound": "CCn1cc(F)c(N)nc1=O", "note": "[Compound 29]", "values": [{"measurement": "pest or weed control at 100 ppm", "setting": "[1]; [2]", "result": "51 to 75", "unit": "%"}, {"measurement": "pest or weed control at 100 ppm", "setting": "[1]; [3]", "result": "76 to 100", "unit": "%"}, {"measurement": "melting point", "result": "279 °C (dec.)"}]}
